Test system: Panc-1 cells
Test: Detachment assay, Panc-1
Format: cell-based, human
Conditions: for detachment: 48 hours
Experimental: Cell Viability Assay—The Cells were treated with peptides for 24 hours at different peptide concentrations. The 3-(4,5-dimethylthiazol-2-yl)-5-(3-carboxymethoxyphenyl)-2-(4-sulfophenyl)-2H-tetrazolium compound from Promega Viability kit (Madison, Ill.) was added, and the cells were incubated at 37° C. for 1-2 hours. The optical density on 96-plate was analyzed with a microplate reader at 490 nm to determine cell viability. In addition, cells were stained with trypan blue after 24 hours of treatment with Y15 and the percent of cells that stained positive were determined with a hemacytometer. Cell adhesion assay—The poly-L-Lysine or Collagen (5 μg/ml) coated 96-well plates were blocked with the blocking buffer (medium with 0.5% BSA) for 1 hour at 37 C. The cells were pre-treated with drugs for 3 hours and plated for adhesion at 4×10^5 cells. Cells were incubated at 37 C for 1 hour, fixed in 3.7% formaldehyde, washed in 0.1% BSA in PBS and stained with crystal violet (5 mg/ml in 2% ethanol) for 10 minutes. Then 2% SDS was added to the dried plated and OD at 590 nm was measured for detecting cell adhesion. […] Protein concentrations were determined using a Bio-Rad Kit. The boiled samples were loaded on Ready SDS-10% PAGE gels (Bio Rad, Inc) and used for Western blot analysis with the protein-specific antibody. […] We calculated the percent of detachment by dividing the number of detached cells by the total number of cells. The percent of detached cells was calculated in three independent experiments. […] The percent of apoptotic cells was calculated as a ratio of apoptotic detached cells divided by the total number of cells in three independent experiments in several fields with the fluorescent microscope. For each experiment 300 cells per treatment were counted. […]

Compound: Cl.Cl.Cl.Cl.Nc1cc(N)c(N)cc1N [Y15, 1,2,4,5-benzenetetraamine tetrahydrochloride]
- detachment compared with TAE226: more detachment than TAE226
- detachment (10 μM): 13%
- detachment (50 μM): 32%

Source: US8314150B2, “Kinase protein binding inhibitors” (priority 2008, dated 2012)
